In PubChem BioAssay (NCI):
Values joined by “and” are separate entries in the source; they are usually repeats but may differ in a detail not shown here. Identical values can stand only once.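 These data come from cells grown in 96-well plates and exposed to compound for 48 hours at five concentrations. The concentration for 50% growth inhibition is given as GI50. TGI marks complete inhibition of growth.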

Experiments:
Test in all cases: growth of human tumour cells (NCI), 48 h
SK-MEL-28 melanoma = test system: SK-MEL-28 melanoma
U251 CNS = test system: U251 CNS
UACC-62 melanoma = test system: UACC-62 melanoma
MDA-MB-231 breast = test system: MDA-MB-231 breast
A549 NSCLC = test system: A549 NSCLC
MOLT-4 leukemia = test system: MOLT-4 leukemia
HCC-2998 colon = test system: HCC-2998 colon
786-0 renal = test system: 786-0 renal
SF-295 CNS = test system: SF-295 CNS
OVCAR-5 ovarian = test system: OVCAR-5 ovarian
A498 renal = test system: A498 renal

SMILES | TGI (SK-MEL-28 melanoma) [µM] | TGI (U251 CNS) [µM] | TGI (UACC-62 melanoma) [µM] | TGI (MDA-MB-231 breast) [µM] | TGI (A549 NSCLC) [µM] | TGI (MOLT-4 leukemia) [µM] | TGI (HCC-2998 colon) [µM] | TGI (786-0 renal) [µM] | TGI (SF-295 CNS) [µM] | TGI (OVCAR-5 ovarian) [µM] | TGI (A498 renal) [µM] | GI50 (U251 CNS) | GI50 (MOLT-4 leukemia)
Cc1nnc2n(c1=O)CCN2C | > 100 | > 100 | > 100 | > 100 | > 100 | > 100 | > 100 | > 100 | > 100 | > 100 | – | – | –
CCCCCCCCCC(=O)N[C@@H](c1ccco1)[C@@H](O)C(=O)O[C@H]1C[C@@]2(O)[C@@H](OC(=O)c3ccccc3)[C@@H]3[C@]4(OC(C)=O)CO[C@@H]4C[C@H](O)[C@@]3(C)C(=O)[C@H](OC(C)=O)C(=C1C)C2(C)C | 14.8 | 2.34 | 9.53 | 4.47 | > 50 | 2.3 | 0.736 | 7.95 | 0.211 | 0.151 | 10.3 | – | –
CC(=O)NC1=C(NCCCl)C(=O)c2ccccc2C1=O | > 100 | > 100 | 42.9 | > 100 | > 100 | 75.5 | > 100 | > 100 | > 100 | > 100 | – | – | –
Cc1ccc(-n2cc(-c3ccc(Cl)cc3)c3c(NN)ncnc32)cc1 | 18.8 | 15.6 | 13.2 | > 100 | 15.3 | 11.5 | 22.2 | 11.1 | 10.7 | 43.2 | – | – | –
O=c1[nH]c(=O)n(COCCO)c2ccsc12 | > 100 | > 100 | – | > 100 | > 100 | > 100 | > 100 | > 100 | > 100 | > 100 | > 100 | – | –
C=C1[C@@](C)([C@@H]2CCCS2)[C@H]2C(C)=C[C@]1(C)n1c(=O)n(-c3ccccc3)c(=O)n12 | > 100 | > 100 | > 100 | > 100 | > 100 | > 100 | > 100 | > 100 | > 100 | > 100 | > 100 | – | –
COC(=O)c1c(C)cccc1C1CN=NC12Cc1ccc(C)c(C)c1C2=O (configuration not stated) | > 100 | > 100 | 57.9 | > 100 | > 100 | 66.4 | 90.6 | > 100 | > 100 | > 100 | > 100 | – | –
CC12CCCCC1=[N+]([O-])C(C)(C)N2O (configuration not stated) | > 100 | > 100 | > 100 | > 100 | > 100 | – | > 100 | > 100 | > 100 | > 100 | – | – | –
CCOC(=O)NNC(=O)NCc1ccccc1CNC(=O)NNC(=O)OCC | > 100 | > 100 | > 100 | > 100 | > 100 | > 100 | > 100 | > 100 | – | > 100 | > 100 | – | –
COC(=O)c1c(CC(Cc2ccc3c(c2)CCCC3)C(=O)OC)ccc2c1CCCC2 (configuration not stated) | > 100 | > 100 | > 100 | > 100 | > 100 | > 100 | > 100 | > 100 | > 100 | > 100 | > 100 | – | –
O=C1CC(C(OCc2ccccc2)C(OCc2ccccc2)C(COCc2ccccc2)OCc2ccccc2)CC(=O)N1 (configuration not stated) | > 100 | > 100 | – | > 100 | > 100 | > 100 | > 100 | > 100 | > 100 | > 100 | > 100 | > 100 µM and 40 µM | > 100 µM and 37.7 µM
Cc1nc2n(c1/C=C1/C(=O)Nc3ccccc31)CCS2 | > 100 | > 100 | > 100 | > 100 | > 100 | > 100 | 61.9 | > 100 | > 100 | > 100 | > 100 | – | –
COC(=O)NNC(c1ccc(Cl)cc1)c1ccc(Cl)cc1 | 43 | 40.3 | 30.9 | 25.8 | 32.8 | 55.9 | 27.6 | 35 | – | 40.3 | 34.9 | – | –
O=C1CC(C(CC(=O)c2ccccc2)c2ccccc2)C(=O)c2ccccc2N1 (configuration not stated) | – | > 100 | > 100 | > 100 | > 100 | 61.2 | > 100 | > 100 | > 100 | > 100 | > 100 | – | –
COCC1OC(S(=O)(=O)c2ccccc2)C(O)C(OC)C1OC (configuration not stated) | > 100 | > 100 | > 100 | > 100 | > 100 | > 100 | > 100 | > 100 | > 100 | > 100 | – | – | –
CCOc1ccc(N=NC2C(=O)N(C(=O)CC(=O)Nc3ccccc3)N=C2C)cc1 (configuration not stated) | > 100 | > 100 | > 100 | > 100 | > 100 | > 100 | > 100 | > 100 | > 100 | > 100 | > 100 | – | –
CC(C)(C)CC(C)(C)NC(=S)NO | > 100 | – | > 100 | > 100 | > 100 | > 100 | > 100 | > 100 | > 100 | > 100 | > 100 | – | –
C=C[C@@]1(O)CCCC[C@@H]1CC(Sc1ccccc1)Sc1ccccc1 | 86.8 | 31.9 | > 100 | 33.2 | 36.2 | > 100 | 26.6 | 59.5 | 27.8 | 32.9 | 85 | – | –
O=[N+]([O-])c1ccc2oc(=Nc3ccccc3)c(Nc3ccccc3)nc2c1 | > 100 | > 100 | > 100 | > 100 | > 100 | > 100 | > 100 | 76.6 | > 100 | > 100 | > 100 | – | –
CC(=O)OC1C2CCC3C(C)(O)C4CC(O)C(C)(C)C4(O)C(O)CC13CC2(C)O (configuration not stated) | – | – | > 100 | > 100 | > 100 | – | > 100 | > 100 | > 100 | > 100 | > 100 | – | –
